Test results taken from ChEMBL document CHEMBL1140049, “Bioisosteric replacement of the pyrazole 5-aryl moiety of N-(piperidin-1-yl)-5-(4-chlorophenyl)-1-(2,4-dichlorophenyl)-4-methyl-1H-pyrazole-3-carboxamide (SR141716A). A novel series of alkynylthiophenes as potent and selective cannabinoid-1 receptor antagonists” (J Med Chem, 2008).
Calls of active or inactive are those of the source. The calls are words filed in the database; no cut-off is given here.

Legend:
Cannabinoid receptor 1 [1] = target: T1, Cannabinoid receptor 1 (Homo sapiens, UniProt P21554); experiment: biochemical; assay type: cell-based, HEK293
Description: Displacement of [3H]CP-55940 from human CB1 receptor expressed in HEK293 cells

Cannabinoid receptor 1 [2] = target: T1, Cannabinoid receptor 1; experiment: Antagonist activity at human CB1 receptor expressed in HEK293 cells assessed as inhibition of Eu-GTP binding; assay type: cell-based
Cannabinoid receptor 2 = Cannabinoid receptor 2 (Homo sapiens, UniProt P34972); experiment: Displacement of [3H]CP-55940 from human CB2 receptor expressed in HEK293 cells; assay type: cell-based
HEK293 = experiment: Selectivity ratio of IC50 for human CB2 receptor to human CB1 receptor expressed in HEK293 cells; assay type: cell-based
Cannabinoid receptor 1 [3] = target: T1, Cannabinoid receptor 1; experiment: Antagonist activity at human CB1 receptor expressed in HEK293 cells assessed as effect on [35S]gammaGTP binding relative to control; assay type: cell-based
Cannabinoid receptor 1 [4] = target: T1, Cannabinoid receptor 1; experiment: Agonist activity at human CB1 receptor expressed in HEK293 cells assessed as increase in [35S]gammaGTP binding relative to control; assay type: cell-based
Cannabinoid receptor 1 [5] = target: T1, Cannabinoid receptor 1; experiment: Displacement of [3H]SR141716A from human CB1 receptor expressed in HEK293 cells; assay type: cell-based

Chain of Cannabinoid receptor 2 (P34972 whole entry): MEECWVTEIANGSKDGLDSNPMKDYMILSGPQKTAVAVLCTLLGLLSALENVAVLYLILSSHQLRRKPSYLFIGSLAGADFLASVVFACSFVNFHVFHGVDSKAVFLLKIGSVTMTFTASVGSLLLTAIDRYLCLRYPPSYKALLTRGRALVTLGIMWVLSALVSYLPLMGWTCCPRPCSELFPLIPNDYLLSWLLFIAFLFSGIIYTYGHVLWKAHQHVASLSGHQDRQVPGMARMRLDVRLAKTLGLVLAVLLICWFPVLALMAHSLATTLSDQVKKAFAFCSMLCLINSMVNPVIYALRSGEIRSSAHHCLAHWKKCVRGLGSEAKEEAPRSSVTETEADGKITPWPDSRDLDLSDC
T1 sequence (P21554 whole entry): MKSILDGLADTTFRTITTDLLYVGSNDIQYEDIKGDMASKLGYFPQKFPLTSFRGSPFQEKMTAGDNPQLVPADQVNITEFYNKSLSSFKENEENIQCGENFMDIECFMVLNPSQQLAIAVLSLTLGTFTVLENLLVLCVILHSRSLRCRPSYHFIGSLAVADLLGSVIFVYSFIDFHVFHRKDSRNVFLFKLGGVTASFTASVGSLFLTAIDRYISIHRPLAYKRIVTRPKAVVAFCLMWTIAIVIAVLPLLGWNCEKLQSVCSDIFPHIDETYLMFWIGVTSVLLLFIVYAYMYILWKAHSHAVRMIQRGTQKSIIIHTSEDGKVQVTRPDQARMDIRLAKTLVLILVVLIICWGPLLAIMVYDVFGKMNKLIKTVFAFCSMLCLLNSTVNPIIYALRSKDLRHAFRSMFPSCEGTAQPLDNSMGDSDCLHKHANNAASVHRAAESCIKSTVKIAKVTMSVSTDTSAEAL

SMILES | IC50 (Cannabinoid receptor 1 [1]) [nM] | EC50 (Cannabinoid receptor 1 [2]) [nM] | IC50 (Cannabinoid receptor 2) [nM] | Ratio IC50 (HEK293) | Activity (Cannabinoid receptor 1 [3]) | Activity (Cannabinoid receptor 1 [4]) | IC50 (Cannabinoid receptor 1 [5]) [nM]
CCC/C=C/c1ccc(-c2c(C)c(C(=O)NN3CC4CCCC4C3)nn2-c2ccc(Cl)cc2Cl)s1 (configuration not stated) | 27.5 | 71.4 | 5410 | 197 | – | – | –
Cc1c(C(=O)NN2CCCCC2)nn(-c2ccc(Cl)cc2Cl)c1-c1ccc(C#CC2CC2)s1 | 60.4 | 72.9 | 4230 | 70 | Active | – | –
Cc1c(C(=O)NN2CCCCC2)nn(-c2ccc(Cl)cc2Cl)c1-c1ccc(Cl)s1 | 50.2 | 147 | 1290 | 26 | – | – | –
Cc1c(C(=O)NN2CCCCC2)nn(-c2ccc(Cl)cc2Cl)c1-c1ccc(C#CCCc2ccccc2)s1 | 6.1 | 20.4 | 1750 | 285 | – | Active | –
Cc1c(C(=O)NN2CC3CCCC3C2)nn(-c2ccc(Cl)cc2Cl)c1-c1ccc(C#CC2CC2)s1 (configuration not stated) | 21 | 105 | 5720 | 272 | Active | – | –
Cc1c(C(=O)NN2CCCCC2)nn(-c2ccc(Cl)cc2Cl)c1-c1ccc(C#CCOc2ccccc2)s1 | 43 | 18.7 | 7030 | 164 | Active | – | –
Cc1c(C(=O)NN2CC3CCCC3C2)nn(-c2ccc(Cl)cc2Cl)c1-c1ccc(C#CC(C)(C)C)s1 (configuration not stated) | 21.7 | 158 | 1160 | 53 | – | Active | –
Cc1c(C(=O)NN2CC3CCCC3C2)nn(-c2ccc(Cl)cc2Cl)c1-c1ccc(C#CC2CCCC2)s1 (configuration not stated) | 10.5 | 99.3 | 902 | 86 | – | Active | –
Cc1c(C(=O)NN2CCCCCC2)nn(-c2ccc(Cl)cc2Cl)c1-c1ccc(Br)s1 | 40.7 | 64.9 | 705 | 17 | – | – | –
CCC#Cc1ccc(-c2c(C)c(C(=O)NN3CC4CCCC4C3)nn2-c2ccc(Cl)cc2Cl)s1 (configuration not stated) | 28.3 | 35.5 | 921 | 33 | Active | – | –
CCCCC#Cc1ccc(-c2c(C)c(C(=O)NCCCC)nn2-c2ccc(Cl)cc2Cl)s1 | 3 | 29.8 | 638 | 213 | – | Active | –
COCC#Cc1ccc(-c2c(C)c(C(=O)NN3CCCCC3)nn2-c2ccc(Cl)cc2Cl)s1 | 65.3 | 143 | 2740 | 42 | – | – | –
CCOCC#Cc1ccc(-c2c(C)c(C(=O)NN3CCCCC3)nn2-c2ccc(Cl)cc2Cl)s1 | 12.7 | 25.5 | 986 | 78 | – | – | –
CCC#Cc1ccc(-c2c(C)c(C(=O)NN3CCCCCC3)nn2-c2ccc(Cl)cc2Cl)s1 | 24.2 | 36.4 | 1060 | 44 | Active | – | –
CCCCCc1ccc(-c2c(C)c(C(=O)NN3CCCCC3)nn2-c2ccc(Cl)cc2Cl)s1 | 57.9 | 75.9 | 6350 | 109 | – | – | –
CCc1c(C(=O)NN2CCCCC2)nn(-c2ccc(Cl)cc2Cl)c1-c1ccc(C#CCC(C)C)s1 | 5.1 | 23 | 1210 | 236 | – | – | –
Cc1c(C(=O)NN2CCCCC2)nn(-c2ccc(Cl)cc2Cl)c1-c1ccc(C#CCOC(C)C)s1 | 23.2 | 57.4 | 1760 | 76 | – | Active | –
CCC/C=C/c1ccc(-c2c(C)c(C(=O)NN3CCCCC3)nn2-c2ccc(Cl)cc2Cl)s1 | 21.6 | 146 | 3840 | 178 | – | – | –

SMILES | IC50 (Cannabinoid receptor 1 [1]) [nM] | EC50 (Cannabinoid receptor 1 [2]) [nM] | IC50 (Cannabinoid receptor 2) [nM] | Ratio IC50 (HEK293) | Activity (Cannabinoid receptor 1 [3]) | Activity (Cannabinoid receptor 1 [4]) | IC50 (Cannabinoid receptor 1 [5]) [nM]
Cc1c(C(=O)NN2CCCCC2)nn(-c2ccc(Cl)cc2Cl)c1-c1ccc(C#CCNC(C)C)s1 | 82.4 | 390 | 7180 | 87 | – | – | –
CCC#Cc1ccc(-c2c(C)c(C(=O)NN3CCCCC3)nn2-c2ccc(Cl)cc2Cl)s1 | 65.4 | 51.4 | 4330 | 66 | Active | – | –
CCCCC#Cc1ccc(-c2c(C)c(C(=O)NN3CC4CCCC4C3)nn2-c2ccc(Cl)cc2Cl)s1 (configuration not stated) | 1.3 | 5.7 | 158 | 122 | – | Active | –
Cc1c(C(=O)NN2CCCCC2)nn(-c2ccc(Cl)cc2Cl)c1-c1ccc(C#CC2CCCCC2)s1 | 7.3 | 442 | 1580 | 216 | – | Active | –
CCCCC#Cc1ccc(-c2c(C)c(C(=O)NN3CCCCCC3)nn2-c2ccc(Cl)cc2Cl)s1 | 1.7 | 4.8 | 564 | 332 | – | Active | –
CCCCCc1ccc(-c2c(C)c(C(=O)NN3CC4CCCC4C3)nn2-c2ccc(Cl)cc2Cl)s1 (configuration not stated) | 20.6 | 48 | 3660 | 178 | – | – | –
Cc1c(C(=O)NN2CCCCC2)nn(-c2ccc(Cl)cc2Cl)c1-c1ccc(C#CC2CCCC2)s1 | 7.1 | 24.5 | 1810 | 255 | – | Active | –
Cc1c(C(=O)NN2CCCCCC2)nn(-c2ccc(Cl)cc2Cl)c1-c1ccc(Cl)s1 | 159 | 134 | 2160 | 14 | – | – | –
Cc1c(C(=O)NN2CC3CCCC3C2)nn(-c2ccc(Cl)cc2Cl)c1-c1ccc(C#CC2CCCCC2)s1 (configuration not stated) | 7.8 | 294 | 1730 | 221 | – | Active | –
CCCCC#Cc1ccc(-c2c(C)c(C(=O)NCCCCCC)nn2-c2ccc(Cl)cc2Cl)s1 | 2.6 | 74 | 261 | 100 | – | Active | –
Cc1c(C(=O)NN2CCCCC2)nn(-c2ccc(Cl)cc2Cl)c1-c1ccc(C#CC(C)(C)C)s1 | 32.7 | 28.9 | 1900 | 59 | – | Active | –
Cc1c(C(=O)NN2CCCCC2)nn(-c2ccc(Cl)cc2Cl)c1-c1ccc(C#CCN(C)C)s1 | 124 | 349 | 1270 | 10 | – | – | –
CCCC#Cc1ccc(-c2c(CC)c(C(=O)NN3CCCCCC3)nn2-c2ccc(Cl)cc2Cl)s1 | 8.9 | 16.5 | 310 | 34 | – | – | 1.2
Cc1c(C(=O)NN2CCCCC2)nn(-c2ccc(Cl)cc2Cl)c1-c1ccc(Br)s1 | 35.8 | 68.2 | 895 | 25 | – | – | –
CCCCC#Cc1ccc(-c2c(C)c(C(=O)NN3CCCCC3)nn2-c2ccc(Cl)cc2Cl)s1 | 1.4 | 7.9 | 311 | 222 | – | Active | –
CCCCC#Cc1ccc(-c2c(C)c(C(=O)NC3CCCCC3)nn2-c2ccc(Cl)cc2Cl)s1 | 2.1 | 43.9 | 278 | 133 | – | Active | –
CCCC#Cc1ccc(-c2c(C)c(C(=O)NN3CC4CCCC4C3)nn2-c2ccc(Cl)cc2Cl)s1 (configuration not stated) | 7.9 | 19.2 | 785 | 99 | Active | – | –
